In patent US8709764B2, “Enzymatic demethylation of flavonoids” (Universiteit Gent, priority 2005, dated 2014):

Tests used:
[1] = system: Eubacterium limosum ATCC 8486; test: Incubation of IX and 8-PN with Eubacterium limosum for 13 days; type: in vitro ADME; conditions: E. limosum, 8-PN as substrate, 13 days
Method: Eubacterium limosum ATCC 8486 and Peptostreptococcus productus ATCC 27340 were obtained from the German Collection of Microorganisms and Cell Cultures (DSMZ, Braunschweig, Germany). E. limosum was incubated for 13 days in Brain Heart Infusion broth (with 0.5 g/l cystein-HCl) with 25 mg/l of IX and 8-PN under anaerobic conditions (Table 2). This strain was able to convert IX into 8-PN. […] This feature is clearly different from the metabolic pathway as observed in liver microsomes wherein 8-PN is extensively further metabolised [Nikolic et al. (2005) J. of Mass Spectrom. 40, 289-299; Nikolic et al. (2004) Drug Metabolism and Disposition 32, 272-279].

[2] = system: fecal culture B supplemented with E. limosum; test: Supplementation of selected E. limosum strain to non-converting fecal culture B incubated with IX; type: in vitro ADME, human; conditions: 8-PN concentration day one versus day seven
Method: The most efficient E. limosum strain, obtained from the selection experiment in example 2, was supplemented to the originally non-converting culture B of example 1, to examine the capacity of this strain to initiate the production of 8-PN in the complex environment of a fecal suspension. The strain was added to the culture in proportions ranging from 0% up to 100% (v/v). This mixture was incubated with 10% (v/v) of 25 mg/L IX for a period of seven days in Brain Heart Infusion broth (with 0.5 g/l cystein-HCl) under anaerobic conditions. The concentration of 8-PN was monitored every two days (FIG. 7).

[3] = cited from earlier work
[4] = Incubation of X or IX with human fecal cultures A-D for 8 days, conversion products detected by HPLC; type: in vitro ADME; conditions: human, 25 mg/l substrate, 8 days anaerobic, average (stdev) molar percentage relative to dosed flavonoid
Method: (§1) Fecal slurries of 20% (w/v) fresh fecal samples were prepared by homogenizing the feces with phosphate buffered saline (0.1 M, pH 7) containing 1 g/l sodiumthioglycolate as reducing agent. The particulate material was removed by centrifugation (1 min, 500×g). The supernatant is hereafter called “the culture”.
(§2) The capacity of the cultures obtained from fecal samples A, B, C and D (further referred as cultures A-D) to degrade or transform the hop prenylflavonoid IX was tested by incubating the fecal cultures (10% (v/v)) in Brain Heart Infusion broth (with 0.5 g/l cystein-HCl) with 25 mg/l of isoxanthohumol for a period of 8 days under anaerobic conditions. Extracts of the incubations at days 0 and 8 were assayed for bioactive transformation products of IX using a Yeast Estrogenic Screen, according to De Boever et al. (2001) Env. Health Perspectives 109, 691-697, based on Routledge & Sumpter (1996) Environ. Toxicol. Chem. 15, 241-248. In brief, Saccharomyces cerevisiae, was transformed with the human estrogen receptor (ERα) gene, together with expression plasmids containing responsive elements and the lacZ reporter gene (encoding the enzyme β-galactosidase). β-galactosidase activity is quantified at 540 nm by the conversion of the chromogenic substance chlorophenol red-β-D-galactopyranoside into chlorophenol red. The bioassay response is expressed as the absorbance at 540 nm divided by the optical density at 630 nm [(A540/A630)net]. The estrogenic activity of the samples was expressed as percentage equivalence to 10 nM estradiol (E2) which elicited a 100% response in the estrogen receptor bioassay. The bioassays were performed in 96-well plates in which 10 μL of the test compounds were tested and incubated with 240 μL of the genetically modified yeast (optical density of 0.25 at 610 nm). Serial dilutions of the test compounds were made in dimethylsulfoxide, which allowed generating dose-response curves for […]. The data were fitted by a 4 parametric logistic model using the Marquardt-Levenberg algorithm (Sigmaplot 4.0, SPSS Inc., Chicago, Ill., USA) (De Boever et al. (2001) Env. Health Perspectives 109, 691-697).
(§3) To further test this transformation, cultures A-D (10% (v/v)) were incubated for 8 days in Brain Heart Infusion broth (with 0.5 g/l cystein-HCl) with either X or IX at a concentration of 25 mg/l under anaerobic conditions and conversion products were detected by HPLC (Table 1). […] However, in culture C almost 40% of 8-PN was recovered, which explains the increase in estrogenic properties of culture C.

human fecal cultures = test: as above; type: in vitro ADME; conditions: all fecal samples A-D, also with autoclaved cultures (non-enzymatic isomerisation)
Method: as §1, §2, §3

[5] = rats, 1000 mg/kg body weight of X; cited from earlier work

Row | Structure (SMILES) | Further degradation of 8-PN [1] | Further conversion of 8-PN [2] | Concentration needed for harmful in-vivo activity [3] [µg/mL] | recovery at 8 days, 25 mg/l ([4]; human fecal culture A (10% v/v), fecal Sample A) [%] | recovery at 8 days, 25 mg/l ([4]; human fecal culture B (10% v/v), fecal Sample B) [%] | recovery at 8 days, 25 mg/l ([4]; human fecal culture C (10% v/v), fecal Sample C) [%] | recovery at 8 days, 25 mg/l ([4]; human fecal culture D (10% v/v), fecal Sample D) [%] | Conversion of X to IX (human fecal cultures) | Share of recovered flavonoids in feces that was unchanged X [5] [%]
1 | CC(C)=CCc1c(O)cc(O)c2c1O[C@H](c1ccc(O)cc1)CC2=O [8-PN, 8-prenylnaringenin] | did not further degrade 8-PN | No further conversion of 8-PN was detected | ~100 | – | – | – | – | – | –
2 | COc1cc(O)c(CC=C(C)C)c(O)c1C(=O)/C=C/c1ccc(O)cc1 [X, 2′,4,4′-trihydroxy-3′-prenyl-6′-methoxychalcone] | – | – | – | 74.9 | 80.5 | 73.6 | 65.4 | slightly converted to IX | 89
